Reference: paper PMC7799360, “Reprogramming immunosuppressive myeloid cells facilitates immunotherapy for colorectal cancer” (EMBO Molecular Medicine, 2020)
Read-outs that look alike come from different tables or passages of the source.

Experiments:
mouse bone marrow cells = experiment: GM-CSF/IL-6-induced bone marrow MDSC differentiation assay; format: cell-based; details: GM-CSF/IL-6/PGE2, 0.1-10 μM TP-16, 6 days
Protocol: Single‐cell suspensions of mouse BM cells were prepared by filtering femurs and tibias of 6‐week‐old female BALB/c mice through 40‐μm cell strainers (Falcon). These suspensions were treated with red blood cell lysis buffer and replated in conditioned medium. Monocyte differentiation, MDSC induction, and macrophage polarization were analyzed by FACS analysis (BD Biosciences) with FlowJo software.
For the MDSC induction assay, purified BM cells were cultured in RPMI1640 medium stimulated with recombinant mouse GM‐CSF (40 ng/ml, Peprotech) and IL‐6 (40 ng/ml, Peprotech) for 6 days to generate bone marrow‐derived MDSCs (Svoronos et al., 2017); the medium was refreshed every 3 days. Vehicle or PGE2 (10 nM) ± TP‐16 was added simultaneously on day 0 for FACS analysis of BM‐derived MDSCs. For quantitative PCR (qPCR) analysis of MDSCs, differentiated MDSCs were treated with vehicle or PGE2 (10 nM) ± TP‐16 for 12 h.

ADORA3 = target: T1, ADORA3 (Homo sapiens, UniProt P0DMS8); experiment: LANCE Ultra cAMP assay; format: cell-based
T1 construct: Pharmaron (Beijing, China) performed the assay
T1 sequence (P0DMS8 whole entry, species assumed): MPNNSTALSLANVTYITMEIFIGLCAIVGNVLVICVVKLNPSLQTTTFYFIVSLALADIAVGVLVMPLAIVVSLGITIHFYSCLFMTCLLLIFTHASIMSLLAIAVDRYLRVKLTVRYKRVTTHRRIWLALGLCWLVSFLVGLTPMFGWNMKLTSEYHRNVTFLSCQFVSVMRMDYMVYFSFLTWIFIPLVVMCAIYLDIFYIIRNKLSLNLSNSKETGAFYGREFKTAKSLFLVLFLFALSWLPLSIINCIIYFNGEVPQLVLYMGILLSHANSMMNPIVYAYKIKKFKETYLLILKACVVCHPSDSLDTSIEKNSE

CB2 = CB2 (Homo sapiens, UniProt P34972); experiment: LANCE Ultra cAMP assay
Sequence of CB2 (P34972 whole entry, species assumed): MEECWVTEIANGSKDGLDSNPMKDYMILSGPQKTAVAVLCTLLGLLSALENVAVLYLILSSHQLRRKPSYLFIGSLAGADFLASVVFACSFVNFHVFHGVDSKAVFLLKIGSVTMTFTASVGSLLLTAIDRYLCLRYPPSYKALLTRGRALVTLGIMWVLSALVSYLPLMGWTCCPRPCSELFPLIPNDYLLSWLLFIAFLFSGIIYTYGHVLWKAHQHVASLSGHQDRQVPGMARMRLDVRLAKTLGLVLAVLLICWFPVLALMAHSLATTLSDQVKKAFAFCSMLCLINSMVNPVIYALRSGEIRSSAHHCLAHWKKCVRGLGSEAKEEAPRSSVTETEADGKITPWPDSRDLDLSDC

human EP3 = human EP3 (Homo sapiens, UniProt P43115); experiment: PGE2-induced calcium flux assay in CHO-Gα16 cells; format: cell-based
Sequence of human EP3 (P43115 1-359 limits assumed): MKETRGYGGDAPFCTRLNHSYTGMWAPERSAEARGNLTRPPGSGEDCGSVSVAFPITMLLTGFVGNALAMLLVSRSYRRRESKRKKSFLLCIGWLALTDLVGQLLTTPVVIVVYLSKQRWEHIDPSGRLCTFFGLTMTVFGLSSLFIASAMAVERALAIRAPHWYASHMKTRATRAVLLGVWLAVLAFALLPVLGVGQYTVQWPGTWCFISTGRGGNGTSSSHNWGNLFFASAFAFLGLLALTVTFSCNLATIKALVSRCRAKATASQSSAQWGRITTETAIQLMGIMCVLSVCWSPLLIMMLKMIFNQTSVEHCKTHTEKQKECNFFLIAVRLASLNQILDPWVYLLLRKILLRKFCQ

4T1 = experiment: Cell viability (MTS); format: cell-based, mouse; details: 4T1, 100 µM
Excerpt: (§1) The murine colon cancer (CT26), murine breast cancer (4T1), and human colon cancer (HCT116, HCT8, HT29, and DLD1) cell lines were obtained from American Type Culture Collection (ATCC). The murine cell lines of melanoma (B16F10), pancreatic cancer (Pan02), and colon cancer (MC38), Chinese hamster ovary (CHO) cell line, and human embryonic kidney cell lines (HEK293 and HEK293T) were purchased from the National Infrastructure of Cell Line Resource (Shanghai, China). Primary human endothelial cells (HUVECs) were kindly provided by Dr. Xinli Wang (Baylor College of Medicine, Houston, TX, USA) and cultured in endothelial cell medium (ScienCell, San Diego, CA, USA) according to the manufacturer’s instructions. The CHO‐Gα16 cell line was established in our previous study and maintained in DMEM/F12 medium containing puromycin (4 μg/ml) (Wu et al., 2018). Cell lines were maintained in vendor recommended growth medium supplemented with 10% FBS (Gibco, Waltham, MA, USA) and 1% penicillin/streptomycin solution (Gibco) at 37°C ins a humidified atmosphere (5% CO2). All cell lines were authenticated using short tandem repeat analysis. All cell lines were confirmed to be mycoplasma‐free by polymerase chain reaction (PCR) analysis. Cell viability was determined using CellTiter 96 ® Aqueous One Solution (Promega, Madison, WI).
(§2) Appendix Figure S1. […]. The cytotoxicity curves
(§3) . Mouse cancer cells: CT26
(§4) . Human colon cancer cells: HCT116 (E),
(§5) HCT8 (F), HT29 (G) and DLD1 (H). Human normal cell line: HUVECs (I). Cell
(§6) viability was measured by MTS. Data are presented as mean ± SEM derived
(§7) from three independent experiments (n=3).
(§8) (1 picture or pasted object on this page, not shown here)

MC38 = experiment: Cell viability (MTS); format: cell-based, mouse; details: MC38, 100 µM
Excerpt: as §1, §2, §3, §4, §5, §6, §7, §8

Panc02 = experiment: Cell viability (MTS); format: cell-based, mouse; details: Panc02, 100 µM
Excerpt: as §1, §2, §3, §4, §5, §6, §7, §8

CT26 = experiment: Cell viability (MTS); format: cell-based, mouse; details: CT26, 100 µM
Excerpt: as §1, §2, §3, §4, §5, §6, §7, §8

[1] = Pharmacokinetics in CD1 mice; format: in vivo, mouse; details: for AUC(0-t): read-out: AUC0-24
Excerpt: 5% (v/v) dimethyl sulfoxide ( DMSO), 10% solutol, and 85% β -cyclodextrin) to male CD1 mice (n = 3). Blood samples were collected at 0.08, 0.25, 0.5, 1, 2, 4, 8, and 24 hr after administration. After suitable sample preparation, the concentration of TP -16 in plasma samples was determine d by the Agilent 1290 HPLC system, coupled with a 6460 triple -quadrupole mass spectrometer and an Agilent Jet Stream electrospray ionization (ESI) source (Agilent
Technologies, USA). Pharmacokinetic parameters were calculated by WinNonlin software version 7.0 based on non -compartmental analysis
(Pharsight Corporation, Mountain View, USA). […]

[2] = male, mouse, plasma, iv, I.V. 1 mg/kg
[3] = male, mouse, plasma, po, P.O. 10 mg/kg

With `C[C@H](NC(=O)c1c(Cc2ccc(F)cc2)sc2c1CCOC2)c1ccc(C(=O)O)cc1` [TP-16] the “PGE2-dependent expansion of both mMDSCs and PMN-MDSCs” value (mouse bone marrow cells) was “significantly inhibited”, the IC50 (ADORA3) was > 10 µM and the IC50 (CB2) was > 10 µM. The IC50 (human EP3) was > 10 µM, the “effect on cell viability” value (4T1) was “did not affect the viability” and the “effect on cell viability” value (MC38) was “did not affect the viability”. For the same compound, the “effect on cell viability” value (Panc02) was “did not affect the viability”, the “effect on cell viability” value (CT26) was “did not affect the viability” and the Vd/F ([1]; I.V. 1 mg/kg) was 2016.0 mL/kg. It also gave a bioavailability ([1]; male, mouse, plasma, 10 mg/kg, ratio of oral AUC0-∞ to intravenous AUC0-∞) of 40.1%, an AUC(0-inf) [1, 2] of 2140 ng·h/mL and a C0 [1, 2] of 2370 ng/mL. For the same compound, the MRT [1, 2] was 2.1 h, the half-life [1, 2] was 180 min and the AUC(0-t) [1, 2] was 2140 ng·h/mL. The AUC(0-inf) [1, 3] was 8580 ng·h/mL, the CL/F [1, 3] was 19.4 mL/min/kg and the Cmax [1, 3] was 3850 ng/mL. For the same compound, the MRT [1, 3] was 3.7 h, the half-life [1, 3] was 324 min and the AUC(0-t) [1, 3] was 8400 ng·h/mL. It also gave a Vd/F ([1]; male, mouse, plasma, po, P.O. 10 mg/kg, read-out: Vd/F) of 9080 mL/kg.
